Tests used:
morningglory = experiment: Test B pre/postemergence morningglory; type: in vivo, Ipomoea hederacea
In short: (§1)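 Test chemicals in a non-phytotoxic solvent mixture with surfactant were sprayed preemergence onto planted seeds and postemergence onto plants 2 to 18 cm tall (1- to 4-leaf stage). After twelve to sixteen days in a greenhouse, injury was visually rated against untreated controls from 0 (no effect) to 10 (complete control).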

smallflower flatsedge = experiment: Test B flood test smallflower flatsedge; type: in vivo, Cyperus difformis
In short: (§2)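 Each value is a visual injury score relative to controls, with 10 meaning complete control and 0 no effect. Evaluation took place twelve to sixteen days after the 2-leaf-stage plants were treated and kept in the greenhouse.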

bamyardgrass = experiment: Test B flood test barnyardgrass; type: in vivo, Echinochloa crus-galli
In short: as §2

rice = experiment: Test B flood test rice; type: in vivo, Oryza sativa
In short: as §2

blackgrass = experiment: Test B pre/postemergence blackgrass; type: in vivo, Alopecurus myosuroides
In short: as §1

sugar beet = experiment: Test B pre/postemergence sugar beet; type: in vivo, Beta vulgaris
In short: as §1

corn = experiment: Test B pre/postemergence corn; type: in vivo, Zea mays
In short: as §1

rape = experiment: Test B pre/postemergence rape; type: in vivo, Brassica napus
In short: as §1

wild oat = experiment: Test B pre/postemergence wild oat; type: in vivo, Avena fatua
In short: as §1

duck salad = experiment: Test B flood test duck salad; type: in vivo, Heteranthera limosa
In short: as §2

surinam grass = experiment: Test B pre/postemergence surinam grass; type: in vivo, Brachiaria decumbens
In short: as §1

wheat = experiment: Test B pre/postemergence wheat; type: in vivo, Triticum aestivum
In short: as §1

giant foxtail = experiment: Test B pre/postemergence giant foxtail; type: in vivo, Setaria faberii
In short: as §1

soybean = experiment: Test B pre/postemergence soybean; type: in vivo, Glycine max
In short: as §1

cocklebur = experiment: Test B pre/postemergence cocklebur; type: in vivo, Xanthium strumarium
In short: as §1

crabgrass = experiment: Test B pre/postemergence crabgrass; type: in vivo, Digitaria sanguinalis
In short: as §1

velvetleaf = experiment: Test B pre/postemergence velvetleaf; type: in vivo, Abutilon theophrasti
In short: as §1

pigweed = experiment: Test B pre/postemergence pigweed; type: in vivo, Amaranthus retroflexus
In short: as §1

purple nutsedge = experiment: Test B pre/postemergence purple nutsedge; type: in vivo, Cyperus rotundus
In short: as §1

[1] = Postemergence, Rate 125 g/ha, scale 0 to 10, 0 is no effect, 10 is complete control
[2] = Postemergence, Rate 500 g/ha, scale 0 to 10, 0 is no effect, 10 is complete control
[3] = Preemergence, Rate 62 g/ha, scale of 0 to 10 where 0 is no effect and 10 is complete control
[4] = Preemergence, Rate 125 g/ha, scale 0 to 10, 0 is no effect, 10 is complete control
[5] = Preemergence, Rate 500 g/ha, scale of 0 to 10 where 0 is no effect and 10 is complete control
[6] = Rate 62 g/ha, Postemergence, scale 0 to 10 (0 no effect, 10 complete control)
[7] = Rate 62 g/ha, flood test species, Pre-emergence, visual evaluation after twelve to sixteen days
[8] = Rate 125 g/ha, under heading Pre-emergence, flood test species, visual evaluation after twelve to sixteen days
[9] = Rate 250 g/ha, Pre-emergence (flood test species), scale 0 to 10, 0 is no effect, 10 is complete control
[10] = Rate 500 g/ha, Pre-emergence section of Table B, 0 to 10 scale (0 no effect, 10 complete control)
[11] = Postemergence, Rate 250 g/ha, scale 0 to 10
[12] = Preemergence, Rate 250 g/ha, scale 0 to 10, 0 is no effect, 10 is complete control

CC(C)N(C(=O)n1oc(=O)n(CC2=NCCO2)c1=O)c1ccccc1 [Compound 495]
Morningglory plant response rating (morningglory; [1]): 1 | Plant response rating, Morningglory (morningglory; [2]): 7 | Plant response rating, Morningglory (morningglory; [3]): 0 | Morningglory plant response rating (morningglory; [4]): 0 | Morningglory plant response rating (morningglory; [5]): 0 | Morningglory plant response rating (morningglory; [6]): 1 | Plant response rating, S. Flatsedge (0 to 10 scale, 0 is no effect, 10 is complete control) (smallflower flatsedge; [7]): 0 | S. Flatsedge plant response rating (0 to 10 scale, 0 is no effect, 10 is complete control) (smallflower flatsedge; [8]): 0 | S. Flatsedge plant response rating (smallflower flatsedge; [9]): 0 | S. Flatsedge plant response rating (smallflower flatsedge; [10]): 0 | Plant response rating, Barnyardgrass (0 to 10 scale, 0 is no effect, 10 is complete control) (bamyardgrass; [7]): 0 | Barnyardgrass plant response rating (0 to 10 scale, 0 is no effect, 10 is complete control) (bamyardgrass; [8]): 0 | Barnyardgrass plant response rating (bamyardgrass; [9]): 0 | Barnyardgrass plant response rating (bamyardgrass; [10]): 0 | Plant response rating, Rice (0 to 10 scale, 0 is no effect, 10 is complete control) (rice; [7]): 0 | Rice plant response rating (0 to 10 scale, 0 is no effect, 10 is complete control) (rice; [8]): 0 | Rice plant response rating (rice; [9]): 0 | Rice plant response rating (rice; [10]): 0 | Blackgrass plant response rating (blackgrass; [1]): 0 | Blackgrass plant response rating (blackgrass; [11]): 0 | Plant response rating, Blackgrass (blackgrass; [2]): 0 | Plant response rating, Blackgrass (blackgrass; [3]): 0 | Blackgrass plant response rating (blackgrass; [4]): 0 | Blackgrass plant response rating (blackgrass; [12]): 0 | Blackgrass plant response rating (blackgrass; [5]): 0 | Blackgrass plant response rating (blackgrass; [6]): 0 | Sugarbeets plant response rating (sugar beet; [1]): 0 | Plant response rating, Sugarbeets (sugar beet; [2]): 0 | Plant response rating, Sugarbeets (sugar beet; [3]): 0 | Sugarbeets plant response rating (sugar beet; [4]): 0 | Sugarbeets plant response rating (sugar beet; [5]): 0 | Sugarbeets plant response rating (sugar beet; [6]): 0 | Corn plant response rating (corn; [1]): 0 | Corn plant response rating (corn; [11]): 0 | Plant response rating, Corn (corn; [2]): 0 | Plant response rating, Corn (corn; [3]): 0 | Corn plant response rating (corn; [4]): 0 | Corn plant response rating (corn; [5]): 0 | Corn plant response rating (corn; [6]): 0 | Rape plant response rating (rape; [1]): 0 | Plant response rating, Rape (rape; [2]): 0 | Plant response rating, Rape (rape; [3]): 0 | Rape plant response rating (rape; [4]): 0 | Rape plant response rating (rape; [5]): 0 | Rape plant response rating (rape; [6]): 0 | Wild oats plant response rating (wild oat; [1]): 0 | Plant response rating, Wild oats (wild oat; [2]): 0 | Plant response rating, Wild oats (wild oat; [3]): 0 | Wild oats plant response rating (wild oat; [4]): 0 | Wild oats plant response rating (wild oat; [5]): 0 | Wild oats plant response rating (wild oat; [6]): 0 | Plant response rating, Ducksalad (0 to 10 scale, 0 is no effect, 10 is complete control) (duck salad; [7]): 0 | Ducksalad plant response rating (0 to 10 scale, 0 is no effect, 10 is complete control) (duck salad; [8]): 0 | Ducksalad plant response rating (duck salad; [9]): 0 | Ducksalad plant response rating (duck salad; [10]): 0 | B. signalgrass plant response rating (surinam grass; [1]): 0 | B. signalgrass plant response rating (surinam grass; Postemergence, Rate 250 g/ha, scale 0 to 10, 0 no effect, 10 complete control): 0 | Plant response rating, B. signalgrass (surinam grass; [2]): 0 | Plant response rating, B. signalgrass (surinam grass; [3]): 0 | B. signalgrass plant response rating (surinam grass; [4]): 0 | B. signalgrass plant response rating (surinam grass; [12]): 0 | B. signalgrass plant response rating (surinam grass; Preemergence, Rate 500 g/ha, scale 0 to 10, 0 is no effect, 10 is complete control): 0 | B. signalgrass plant response rating (surinam grass; [6]): 0 | Wheat plant response rating (wheat; [1]): 0 | Plant response rating, Wheat (wheat; [2]): 0 | Plant response rating, Wheat (wheat; [3]): 0 | Wheat plant response rating (wheat; [4]): 0 | Wheat plant response rating (wheat; [5]): 0 | Wheat plant response rating (wheat; [6]): 0 | Giant foxtail plant response rating (giant foxtail; [1]): 0 | Plant response rating, Giant foxtail (giant foxtail; [2]): 0 | Plant response rating, Giant foxtail (giant foxtail; [3]): 0 | Giant foxtail plant response rating (giant foxtail; [4]): 0 | Giant foxtail plant response rating (giant foxtail; [5]): 0 | Giant foxtail plant response rating (giant foxtail; [6]): 0 | Soybean plant response rating (soybean; [1]): 0 | Plant response rating, Soybean (soybean; [2]): 0 | Plant response rating, Soybean (soybean; [3]): 0 | Soybean plant response rating (soybean; [4]): 0 | Soybean plant response rating (soybean; [5]): 0 | Soybean plant response rating (soybean; [6]): 0 | Cocklebur plant response rating (cocklebur; [1]): 0 | Cocklebur plant response rating (cocklebur; [11]): 0 | Plant response rating, Cocklebur (cocklebur; [2]): 0 | Plant response rating, Cocklebur (cocklebur; [3]): 0 | Cocklebur plant response rating (cocklebur; [4]): 0 | Cocklebur plant response rating (cocklebur; [12]): 0 | Cocklebur plant response rating (cocklebur; [5]): 0 | Cocklebur plant response rating (cocklebur; [6]): 0 | Crabgrass plant response rating (crabgrass; [1]): 0 | Crabgrass plant response rating (crabgrass; [11]): 0 | Plant response rating, Crabgrass (crabgrass; [2]): 0 | Plant response rating, Crabgrass (crabgrass; [3]): 0 | Crabgrass plant response rating (crabgrass; [4]): 0 | Crabgrass plant response rating (crabgrass; [5]): 0 | Crabgrass plant response rating (crabgrass; [6]): 0 | Velvetleaf plant response rating (velvetleaf; [1]): 0 | Plant response rating, Velvetleaf (velvetleaf; [2]): 0 | Plant response rating, Velvetleaf (velvetleaf; [3]): 0 | Velvetleaf plant response rating (velvetleaf; [4]): 0 | Velvetleaf plant response rating (velvetleaf; [5]): 0 | Velvetleaf plant response rating (velvetleaf; [6]): 0 | Redroot pigweed plant response rating (pigweed; [1]): 0 | Plant response rating, Redroot pigweed (pigweed; [2]): 0 | Plant response rating, Redroot pigweed (pigweed; [3]): 0 | Redroot pigweed plant response rating (pigweed; [4]): 0 | Redroot pigweed plant response rating (pigweed; [5]): 0 | Redroot pigweed plant response rating (pigweed; [6]): 0 | Nutsedge plant response rating (purple nutsedge; [1]): 0 | Plant response rating, Nutsedge (purple nutsedge; [2]): 0 | Plant response rating, Nutsedge (purple nutsedge; [3]): 0 | Nutsedge plant response rating (purple nutsedge; [4]): 0 | Nutsedge plant response rating (purple nutsedge; [5]): 0 | Nutsedge plant response rating (purple nutsedge; [6]): 0
